# Data from patent publication US4136173A (priority 1977, dated 1979).
# Where a name gives a salt, the structure may show the parent alone.
# Experiments:
# [1] = intranasal evaluation of LH-RH gum formulations; type: in vivo; conditions: 2% LH-RH, […] locust bean gum, […] xanthan gum, 0.5-1% phenylethyl alcohol
# Experimental: II. -- Formulations containing 2% LH-RH, 0.25% locust bean gum, 0.25% xanthan gum, and 0.5-1% phenylethyl alcohol were also prepared and evaluated intranasally.
# [2] = system: neuroleptically treated rats; test: ovulation after subcutaneous LH-RH in neuroleptically treated rats; type: in vivo, rat
# Experimental: I. -- Formulations containing the polypeptide, gonadorelin also known as luteinizing hormone-releasing hormone (LH-RH) were evaluated for potency.
# Prepared by hydrating each gum separately at 80° C. for 30 minutes and treated with a cell disrupter for 2 minutes. The gum solutions were mixed in the presence of hydrochloric acid by adjusting the pH to 3. Chlorobutanol was then dissolved in the mixed gum solution and filtered. LH-RH was then dissolved in the gum solution over a dose range of 0 to 500 nanograms.
# The test solutions were administered subcutaneously to neuroleptically treated rats.
# Rabbits' eyes = test: average miotic response intensity (pilocarpine hydrochloride formulations); type: in vivo, rabbit
# Experimental: rabbit's eyes were treated with 2 drops of the test solution, and pupillary diameters were measued with a cathetometer. The miotic response intensity was computed by taking the difference in pupillary diameters at zero time and time "T" (i.e., hours after instillation) and dividing it by the pupillary diameter at zero time. The table below illustrates the average miotic response for all eyes as a function of hours after instillation.
# Formulations containing pilocarpine hydrochloride were prepared as in Example 2 and are illustrated as follows: […]
compound,measurement,setting,value
CC(C)C[C@H](NC(=O)CNC(=O)[C@H](Cc1ccc(O)cc1)NC(=O)[C@H](CO)NC(=O)[C@H](Cc1c[nH]c2ccccc12)NC(=O)[C@H](Cc1cnc[nH]1)NC(=O)[C@@H]1CCC(=O)N1)C(=O)N[C@@H](CCCNC(=N)N)C(=O)N1CCC[C@H]1C(=O)NCC(N)=O [LH-RH],LH-RH release after intranasal administration,[1],stimulates LH-RH release at a level greater than formulations without the mixed gums
same,Number of Ova Found,"[2]; 31 NG s.c., Control (No Gums)",0
same,Number of Rats Ovulating,"[2]; 31 NG s.c., Control (No Gums)",0/10
same,Number of Ova Found,"[2]; 31 NG s.c., with 0.5% Gums",0
same,Number of Rats Ovulating,"[2]; 31 NG s.c., with 0.5% Gums",0/10
same,Number of Ova Found,"[2]; 62 NG s.c., Control (No Gums)",7
same,Number of Rats Ovulating,"[2]; 62 NG s.c., Control (No Gums)",2/10
same,Number of Ova Found,"[2]; 62 NG s.c., with 0.5% Gums",8.7 ± 1.4
same,Number of Rats Ovulating,"[2]; 62 NG s.c., with 0.5% Gums",3/10
same,Number of Ova Found,"[2]; 125 NG s.c., Control (No Gums)",8 ± 1.2
same,Number of Rats Ovulating,"[2]; 125 NG s.c., Control (No Gums)",5/10
same,Number of Ova Found,"[2]; 125 NG s.c., with 0.5% Gums",10.6 ± 0.6
same,Number of Rats Ovulating,"[2]; 125 NG s.c., with 0.5% Gums",7/10
same,Number of Ova Found,"[2]; 250 NG s.c., Control (No Gums)",10.1 ± 0.5
same,Number of Rats Ovulating,"[2]; 250 NG s.c., Control (No Gums)",8/10
same,Number of Ova Found,"[2]; 250 NG s.c., with 0.5% Gums",11.2 ± 0.7
same,Number of Rats Ovulating,"[2]; 250 NG s.c., with 0.5% Gums",9/10
same,Number of Ova Found,"[2]; 500 NG s.c., Control (No Gums)",10.5 ± 0.6
same,Number of Rats Ovulating,"[2]; 500 NG s.c., Control (No Gums)",10/10
same,Number of Ova Found,"[2]; 500 NG s.c., with 0.5% Gums",11.5 ± 0.5
same,Number of Rats Ovulating,"[2]; 500 NG s.c., with 0.5% Gums",10/10
same,LH release and induction of ovulation,"[2]; s.c., fluphenazine dihydrochloride pre-treated proestrous rats",released LH and subsequently induced ovulation
CC[C@@H]1C(=O)OC[C@@H]1Cc1cncn1C [pilocarpine hydrochloride],potentiation of miotic response by gums,Rabbits' eyes; combined locust bean and xanthan gums,potentiate the miotic response
CC[C@@H]1C(=O)OC[C@@H]1Cc1cncn1C [pilocarpine],possible reduction of dose with gums,Rabbits' eyes; combined use of locust bean and xanthan gums,up to one fifth
